Results reported in US20100267561A1, “HERBICIDAL PYRIDAZINONE DERIVATIVES” (priority 2007, published 2010).

How the values were obtained:
Type in all cases: in vivo
[1] = system: corn (Zea mays); test: Test A pre-/postemergence plant response
How it was run: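 Seeds sown in loam–sand blend; test chemicals in non-phytotoxic solvent with surfactant applied preemergence as directed soil spray and, concurrently, postemergence to plants 2–10 cm tall at one- to two-leaf stage. Greenhouse ~10 days, then visual injury rating vs untreated controls on 0–100 scale (0 = no effect, 100 = complete control).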

[2] = system: Italian ryegrass (Lolium multiflorum); test: Test C pre-/postemergence plant response
How it was run: (§1)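 Visual rating vs untreated controls, 0 (no effect) to 100 (complete control), after 15–25 days in a controlled growth environment. Pre- and postemergence treatments; post plants at 1- to 4-leaf stage, 2–18 cm. Formulation: non-phytotoxic solvent mix plus surfactant.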

[3] = system: annual bluegrass (Poa annua); test: Test C pre-/postemergence plant response
How it was run: as §1

[4] = system: blackgrass (Alopecurus myosuroides); test: Test C pre-/postemergence plant response
How it was run: as §1

[5] = system: canarygrass (Phalaris minor); test: Test C pre-/postemergence plant response; conditions: Preemergence
How it was run: as §1

[6] = system: canola (Brassica rapa); test: Test C pre-/postemergence plant response; conditions: scale 0 to 100, 0 no effect, 100 complete control
How it was run: as §1

[7] = system: downy bromegrass (Bromus tectorum); test: Test C pre-/postemergence plant response
How it was run: as §1

[8] = system: green foxtail (Setaria viridis); test: Test C pre-/postemergence plant response
How it was run: as §1

[9] = system: pigweed (Amaranthus retroflexus); test: Test C pre-/postemergence plant response
How it was run: as §1

[10] = system: spring barley (Hordeum vulgare); test: Test C pre-/postemergence plant response
How it was run: as §1

[11] = system: spring wheat (Triticum aestivum); test: Test C pre-/postemergence plant response
How it was run: as §1

[12] = system: wild mustard (Sinapis arvensis); test: Test C pre-/postemergence plant response
How it was run: as §1

[13] = system: wild oat (Avena fatua); test: Test C pre-/postemergence plant response
How it was run: as §1

[14] = system: windgrass (Apera spica-venti); test: Test C pre-/postemergence plant response
How it was run: as §1

[15] = system: winter barley (Hordeum vulgare); test: Test C pre-/postemergence plant response
How it was run: as §1

[16] = system: winter wheat (Triticum aestivum); test: Test C pre-/postemergence plant response
How it was run: as §1

[17] = Postemergence, 8 g ai/ha, scale 0 to 100, 0 no effect, 100 complete control
[18] = Postemergence, 16 g ai/ha, scale 0 to 100, 0 no effect, 100 complete control
[19] = Postemergence, 31 g ai/ha, scale 0 to 100, 0 no effect, 100 complete control
[20] = Postemergence, 62 g ai/ha, scale 0 to 100, 0 no effect, 100 complete control
[21] = Preemergence, 8 g ai/ha, scale 0 to 100 (0 no effect, 100 complete control)
[22] = Preemergence, 16 g ai/ha, scale 0 to 100 (0 no effect, 100 complete control)
[23] = Preemergence, 31 g ai/ha, scale 0 to 100 (0 no effect, 100 complete control)
[24] = Preemergence, 62 g ai/ha, scale 0 to 100, 0 no effect, 100 complete control

CCOC(=O)Oc1cnn(C)c(=O)c1-n1nc(-c2ccc(Cl)cc2)cc1C [Compound 53]
98: Plant response rating, Blackgrass [4, 23] | Plant response rating, Blackgrass [4, 24] | Plant response rating, Foxtail, Green [8, 18] | Plant response rating, Wheat, Spring [11, 20]
35: Plant response rating, Bluegrass [3, 20]
25: Plant response rating, Ryegrass, Italian [2, 21] | Plant response rating, Oat, Wild [13, 17]
50: Plant response rating, Wheat, Spring [11, 18] | Plant response rating, Windgrass [14, 19] | Plant response rating, Barley, Winter [15, 23] | Plant response rating, Barley, Winter [15, 24] | Plant response rating, Wheat, Winter [16, 23]
20: Plant response rating, Bluegrass [3, 22] | Plant response rating, Bromegrass, Downy [7, 18] | Plant response rating, Bromegrass, Downy [7, 22] | Plant response rating, Wheat, Spring [11, 22]
85: Plant response rating, Bromegrass, Downy [7, 24] | Plant response rating, Wheat, Spring [11, 23] | Plant response rating, Wheat, Spring [11, 24] | Plant response rating, Oat, Wild [13, 24]
70: Plant response rating, Corn ([1]; Preemergence, 125 g ai/ha, 0 to 100 scale (0 no effect, 100 complete control)) | Plant response rating, Blackgrass [4, 21] | Plant response rating, Windgrass [14, 20] | Plant response rating, Wheat, Winter [16, 24]
30: Plant response rating, Bromegrass, Downy [7, 19] | Plant response rating, Windgrass [14, 22]
80: Plant response rating, Corn ([1]; Postemergence, 31 g ai/ha, 0 to 100 scale, 0 no effect, 100 complete control) | Plant response rating, Bromegrass, Downy [7, 23] | Plant response rating, Wheat, Spring [11, 19]
75: Plant response rating, Ryegrass, Italian [2, 17] | Plant response rating, Blackgrass [4, 22] | Plant response rating, Barley, Spring [10, 24] | Plant response rating, Oat, Wild [13, 23] | Plant response rating, Windgrass [14, 23]
0: Plant response rating, Corn ([1]; Preemergence, 31 g ai/ha, 0 to 100 scale, 0 is no effect, 100 is complete control) | Plant response rating, Bluegrass [3, 17] | Plant response rating, Bluegrass [3, 18] | Plant response rating, Bluegrass [3, 19] | Plant response rating, Bluegrass [3, 21] | Plant response rating, Canarygrass ([5]; 8 g ai/ha, scale 0 to 100 (0 no effect, 100 complete control)) | Plant response rating, Canarygrass ([5]; 16 g ai/ha, scale 0 to 100 (0 no effect, 100 complete control)) | Plant response rating, Canola ([6]; Postemergence, 8 g ai/ha) | Plant response rating, Canola ([6]; Postemergence, 16 g ai/ha) | Plant response rating, Canola ([6]; Postemergence, 31 g ai/ha) | Plant response rating, Canola ([6]; Postemergence, 62 g ai/ha) | Plant response rating, Canola ([6]; Preemergence, 62 g ai/ha) | Plant response rating, Bromegrass, Downy [7, 17] | Plant response rating, Pigweed [9, 17] | Plant response rating, Pigweed [9, 18] | Plant response rating, Pigweed [9, 19] | Plant response rating, Pigweed [9, 20] | Plant response rating, Pigweed [9, 21] | Plant response rating, Pigweed [9, 22] | Plant response rating, Pigweed [9, 23] | Plant response rating, Pigweed [9, 24] | Plant response rating, Barley, Spring [10, 17] | Plant response rating, Barley, Spring [10, 21] | Plant response rating, Barley, Spring [10, 22] | Plant response rating, Wheat, Spring [11, 21] | Plant response rating, Mustard, Wild [12, 17] | Plant response rating, Mustard, Wild [12, 18] | Plant response rating, Mustard, Wild [12, 19] | Plant response rating, Mustard, Wild [12, 20] | Plant response rating, Mustard, Wild [12, 21] | Plant response rating, Mustard, Wild [12, 23] | Plant response rating, Mustard, Wild [12, 24] | Plant response rating, Oat, Wild [13, 21] | Plant response rating, Oat, Wild [13, 22] | Plant response rating, Windgrass [14, 17] | Plant response rating, Windgrass [14, 18] | Plant response rating, Windgrass [14, 21] | Plant response rating, Barley, Winter [15, 17] | Plant response rating, Barley, Winter [15, 21] | Plant response rating, Wheat, Winter [16, 17] | Plant response rating, Wheat, Winter [16, 21] | Plant response rating, Wheat, Winter [16, 22]
15: Plant response rating, Barley, Winter [15, 22]
90: Plant response rating, Corn ([1]; Postemergence, 125 g ai/ha, 0 to 100 scale, 0 no effect, 100 complete control) | Plant response rating, Bromegrass, Downy [7, 20] | Plant response rating, Foxtail, Green [8, 21] | Plant response rating, Foxtail, Green [8, 22] | Plant response rating, Oat, Wild [13, 18] | Plant response rating, Windgrass [14, 24]
95: Plant response rating, Canarygrass ([5]; 31 g ai/ha, scale 0 to 100 (0 no effect, 100 complete control)) | Plant response rating, Canarygrass ([5]; 62 g ai/ha, scale 0 to 100, 0 no effect, 100 complete control) | Plant response rating, Foxtail, Green [8, 17] | Plant response rating, Barley, Winter [15, 20] | Plant response rating, Wheat, Winter [16, 20]
100: Plant response rating, Ryegrass, Italian [2, 18] | Plant response rating, Ryegrass, Italian [2, 19] | Plant response rating, Ryegrass, Italian [2, 20] | Plant response rating, Ryegrass, Italian [2, 22] | Plant response rating, Ryegrass, Italian [2, 23] | Plant response rating, Ryegrass, Italian [2, 24] | Plant response rating, Blackgrass [4, 18] | Plant response rating, Blackgrass [4, 19] | Plant response rating, Blackgrass [4, 20] | Plant response rating, Foxtail, Green [8, 19] | Plant response rating, Foxtail, Green [8, 20] | Plant response rating, Foxtail, Green [8, 23] | Plant response rating, Foxtail, Green [8, 24] | Plant response rating, Barley, Spring [10, 20] | Plant response rating, Oat, Wild [13, 19] | Plant response rating, Oat, Wild [13, 20]
65: Plant response rating, Bluegrass [3, 24] | Plant response rating, Blackgrass [4, 17] | Plant response rating, Wheat, Winter [16, 19]
5: Plant response rating, Wheat, Spring [11, 17]
10: Plant response rating, Bromegrass, Downy [7, 21] | Plant response rating, Barley, Winter [15, 18] | Plant response rating, Wheat, Winter [16, 18]
40: Plant response rating, Bluegrass [3, 23] | Plant response rating, Barley, Spring [10, 18] | Plant response rating, Barley, Spring [10, 19] | Plant response rating, Barley, Spring [10, 23] | Plant response rating, Barley, Winter [15, 19]
